# Tests used:
# Assay in all cases: combination Emax (second highest fraction inhibited in the dose matrix, 72 h); higher = more inhibition; extreme values may be limits of the assay
# NB14 (Neuroblastoma) = tested on: NB14 (Neuroblastoma)
# Outline: (§1)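 Cell lines grown in DMEM/F12 or RPMI with 10% FBS were plated in 1536-well plates and held 24 hours at 37°C, 5% CO2 before 72 hours of exposure to two-drug dose matrices, with DMSO typically at 0.2%. CellTiter-Glo 2.0 luminescence gave viability, which was converted to inhibition. Vehicle wells were set to 0 and blank wells to 1. Combination Emax is the second-highest inhibition in the matrix, and Bliss excess is the observed combination effect minus the expected EA + EB − EA·EB, where EA and EB are the single-agent effects.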
# [1] = tested on: HARA (Squamous Cell Lung Carcinoma)
# Outline: as §1
# [2] = tested on: PCI-30 (Head and Neck Carcinoma)
# Outline: as §1
# NCI-H28 (Mesothelioma) = tested on: NCI-H28 (Mesothelioma)
# Outline: as §1
# [3] = tested on: OC-314 (Ovarian Carcinoma)
# Outline: as §1
# [4] = tested on: EN (Endometrial Carcinoma)
# Outline: as §1
# [5] = tested on: SU-DHL-6 (B-Cell Non-Hodgkin's Lymphoma)
# Outline: as §1
# [6] = tested on: HO-1-u-1 (Oral Cavity Carcinoma)
# Outline: as §1
# [7] = tested on: SK-OV-3 (Ovarian Carcinoma)
# Outline: as §1
# NCI-H2461 (Mesothelioma) = tested on: NCI-H2461 (Mesothelioma)
# Outline: as §1
# [8] = tested on: SW1271 (Small Cell Lung Carcinoma)
# Outline: as §1
# [9] = tested on: 8305C (Thyroid Gland Carcinoma)
# Outline: as §1
# [10] = tested on: Hs-633T (Other Solid Carcinomas)
# Outline: as §1
# NCI-H2795 (Mesothelioma) = tested on: NCI-H2795 (Mesothelioma)
# Outline: as §1
# [11] = tested on: SUP-T1 (T-Lymphoblastic Leukemia)
# Outline: as §1
# [12] = tested on: NCI-H69 (Small Cell Lung Carcinoma)
# Outline: as §1
# [13] = tested on: CAL-54 (Kidney Carcinoma)
# Outline: as §1
# [14] = tested on: RT-112 (Bladder Carcinoma)
# Outline: as §1
# [15] = tested on: K5 (Thyroid Gland Carcinoma)
# Outline: as §1
# [16] = tested on: RKO (Colorectal Carcinoma)
# Outline: as §1
compound,measurement,setting,value
"C[C@@H]1COCCN1c1cc(C2([S@](C)(=N)=O)CC2)nc(-c2ccnc3[nH]ccc23)n1 [AZD6738] + C1CC(C1)(C(=O)[O-])C(=O)[O-].N.N.[Pt+2] [Carboplatin] (first compound max 10 µM, 7x7, partner max 10 µM)",combination Emax,NB14 (Neuroblastoma),0.952
same,combination Emax,[1],0.853
same,combination Emax,[2],0.45
same,combination Emax,NCI-H28 (Mesothelioma),0.479
same,combination Emax,[3],0.814
same,combination Emax,[4],0.537
same,combination Emax,[5],0.285
same,combination Emax,[6],0.75
same,combination Emax,[7],0.36
same,combination Emax,NCI-H2461 (Mesothelioma),0.646
same,combination Emax,[8],0.356
same,combination Emax,[9],0.501
same,combination Emax,[10],0.836
same,combination Emax,NCI-H2795 (Mesothelioma),0.573
same,combination Emax,[11],0.719
same,combination Emax,[12],0.373
same,combination Emax,[13],0.695
same,combination Emax,[14],0.679
same,combination Emax,[15],0.517
same,combination Emax,[16],0.932
"N#Cc1cnc(Nc2cc(NC[C@H]3CNCCO3)c(C(F)(F)F)cn2)cn1 [SRA737] + C=CCn1c(=O)c2cnc(Nc3ccc(N4CCN(C)CC4)cc3)nc2n1-c1cccc(C(C)(C)O)n1 [AZD1775] (first compound max 10 µM, partner max 1 µM)",combination Emax,NB14 (Neuroblastoma),0.997
same,combination Emax,[1],0.983
same,combination Emax,[2],0.687
same,combination Emax,NCI-H28 (Mesothelioma),0.617
same,combination Emax,[3],0.928
same,combination Emax,[4],0.696
same,combination Emax,[5],0.933
same,combination Emax,[6],0.924
same,combination Emax,[7],0.572
same,combination Emax,NCI-H2461 (Mesothelioma),0.709
same,combination Emax,[8],0.488
same,combination Emax,[9],0.553
same,combination Emax,[10],0.79
same,combination Emax,NCI-H2795 (Mesothelioma),0.707
same,combination Emax,[11],0.766
same,combination Emax,[12],0.756
same,combination Emax,[13],0.749
same,combination Emax,[14],0.954
same,combination Emax,[15],0.395
same,combination Emax,[16],0.957
"N#Cc1cnc(Nc2cc(NC[C@H]3CNCCO3)c(C(F)(F)F)cn2)cn1 [SRA737] + O=c1[nH]cc(F)c(=O)[nH]1 [5-Fluorouracil] (first compound max 10 µM, 7x7, partner max 20 µM)",combination Emax,NB14 (Neuroblastoma),0.97
same,combination Emax,[1],0.89
same,combination Emax,[2],0.226
same,combination Emax,NCI-H28 (Mesothelioma),0.28
same,combination Emax,[3],0.902
same,combination Emax,[4],0.483
same,combination Emax,[5],0.748
same,combination Emax,[6],0.667
same,combination Emax,NCI-H2461 (Mesothelioma),0.526
same,combination Emax,[8],0.156
same,combination Emax,[9],0.392
same,combination Emax,[10],0.413
same,combination Emax,NCI-H2795 (Mesothelioma),0.759
same,combination Emax,[11],0.662
same,combination Emax,[12],0.152
same,combination Emax,[13],0.565
same,combination Emax,[14],0.712
same,combination Emax,[15],0.451
same,combination Emax,[16],0.656
"C[C@@H](Nc1cc(F)cc(F)c1)c1cc(C(=O)N(C)C)cc2c(=O)cc(N3CCOCC3)oc12 [AZD8186] + C1CN(CCC1(C(=O)N[C@@H](CCO)C2=CC=C(C=C2)Cl)N)C3=NC=NC4=C3C=CN4 [AZD5363] (first compound max 10 µM, 7x7, partner max 10 µM)",combination Emax,NB14 (Neuroblastoma),0.213
same,combination Emax,[1],0.467
same,combination Emax,[2],0.313
same,combination Emax,NCI-H28 (Mesothelioma),0.359
same,combination Emax,[3],0.562
same,combination Emax,[4],0.536
same,combination Emax,[5],1
same,combination Emax,[6],0.752
same,combination Emax,[7],0.426
same,combination Emax,NCI-H2461 (Mesothelioma),0.457
same,combination Emax,[8],0.289
same,combination Emax,[9],0.369
same,combination Emax,[10],0.297
same,combination Emax,NCI-H2795 (Mesothelioma),0.409
same,combination Emax,[11],0.553
same,combination Emax,[12],0.536
same,combination Emax,[13],0.683
same,combination Emax,[14],0.254
same,combination Emax,[15],0.466
same,combination Emax,[16],0.433
"Cc1c2c(nn1C)CSCc1cc(n(C)n1)CSc1cc(c3ccccc3c1)OCCCc1c(C(=O)O)n(C)c3c-2c(Cl)ccc13 [AZD5991] + CS(=O)(=O)CCNCc1ccc(-c2ccc3ncnc(Nc4ccc(OCc5cccc(F)c5)c(Cl)c4)c3c2)o1 [Lapatinib] (first compound max 1 µM, 7x7, partner max 10 µM)",combination Emax,NB14 (Neuroblastoma),0.936
same,combination Emax,[1],0.786
same,combination Emax,[2],0.257
same,combination Emax,NCI-H28 (Mesothelioma),0.337
same,combination Emax,[3],0.506
same,combination Emax,[4],0.519
same,combination Emax,[5],1
same,combination Emax,[6],0.713
same,combination Emax,[7],0.347
same,combination Emax,NCI-H2461 (Mesothelioma),0.332
same,combination Emax,[8],0.424
same,combination Emax,[9],0.346
same,combination Emax,[10],0.206
same,combination Emax,NCI-H2795 (Mesothelioma),0.877
same,combination Emax,[11],0.488
same,combination Emax,[12],0.443
same,combination Emax,[13],0.529
same,combination Emax,[14],0.827
same,combination Emax,[15],0.237
same,combination Emax,[16],0.455
"O=C(c1cc(Cc2n[nH]c(=O)c3ccccc23)ccc1F)N1CCN(C(=O)C2CC2)CC1 [Olaparib] + COc1nnc2ccc(N3CCC(c4ccc(OCCN5CCN(C)C(=O)[C@H]5C)cc4)CC3)nn12 [AZD5153] (first compound max 10 µM, 7x7, partner max 1 µM)",combination Emax,NB14 (Neuroblastoma),0.574
same,combination Emax,[1],0.582
same,combination Emax,[2],0.251
same,combination Emax,NCI-H28 (Mesothelioma),0.422
same,combination Emax,[3],0.798
same,combination Emax,[4],0.347
same,combination Emax,[5],0.917
same,combination Emax,[6],0.454
same,combination Emax,[7],0.516
same,combination Emax,NCI-H2461 (Mesothelioma),0.42
same,combination Emax,[8],0.573
same,combination Emax,[9],0.495
same,combination Emax,[10],0.612
same,combination Emax,NCI-H2795 (Mesothelioma),0.651
same,combination Emax,[11],0.792
same,combination Emax,[12],0.488
same,combination Emax,[13],0.737
same,combination Emax,[14],0.157
same,combination Emax,[15],0.611
same,combination Emax,[16],0.672
